Like-named read-outs stand apart in the source and are kept apart here.
Assays:
[1] = biological target: T1, farnesyl protein transferase (FPT) (Rattus norvegicus, UniProt Q02293+Q04631); assay: In vitro enzyme assay: inhibition of farnesyl protein transferase (transfer of [3H]farnesyl to Ras-CVLS); assay type: biochemical
T1 construct: were partially purified from rat brain by ammonium sulfate fractionation followed by Q-Sepharose; from tissue; host or cells: rat brain
Protocol: • 1. In vitro enzyme assays: Inhibition of farnesyl protein transferase and geranylgeranyl protein transferase. […] Human farnesyl protein transferase was also expressed in E. coli, using cDNA clones encoding both the a and b subunits. […] Human farnesyl protein transferase was partially-purified from the soluble protein fraction of E. coli as described above. […] Two forms of val^12-Ha-Ras protein were prepared as substrates for these enzymes, differing in their carboxy terminal sequence. One form terminated in cysteine-valine-leucine-serine (Ras-CVLS) the other in cystein-valine-leucine-leucine (Ras-CVLL). Ras-CVLS is a substrate for the farnesyl protein transferase while Ras-CVLL is a substrate for geranylgeranyl protein transferase I. The cDNAs encoding these proteins were constructed so that the proteins contain an amino-terminal extension of 6 histidine residues. Both proteins were expressed in Escherichia coli and purified using metal chelate affinity chromatography. The radiolabelled isoprenyl pyrophosphate substrates, [^3H]farnesyl pyrophosphate and [^3H]geranylgeranyl pyrophosphate, were purchased from DuPont/New England Nuclear. […] The reaction was allowed to proceed for 30 minutes at room temperature and then stopped with 0.5 ml of 4% sodium dodecyl sulfate (SDS) followed by 0.5 ml of cold 30% TCA. Samples were allowed to sit on ice for 45 minutes and precipitated Ras protein was then collected on GF/C filter paper mats using a Brandel cell harvester. […] Percent inhibition was calculated relative to the DMSO vehicle control. The geranylgeranyl protein transferase I assay was essentially identical to the farnesyl protein transferase assay described above, with two exceptions: [^3H]geranylgeranylpyrophosphate replaced farnesyl pyrophosphate as the isoprenoid donor and Ras-CVLL was the protein acceptor. […] Cell-Based Assay: Transient expression of val^12-Ha-Ras-CVLS and val^12-Ha-Ras-CVLL in COS monkey kidney cells: Effect of farnesyl protein transferase inhibitors on Ras processing and on disordered cell growth induced by transforming Ras. COS monkey kidney cells were transfected by electroporation with the plasmid pSV-SPORT (Gibco/BRL) containing a cDNA insert encoding either Ras-CVLS or Ras-CVLL, leading to transient overexpression of a Ras substrate for either farnesyl protein transferase or geranylgeranyl protein transferase I, respectively (see above). Following electroporation, cells were plated into 6-well tissue culture dishes containing 1.5 ml of Dulbecco's-modified Eagle's media (GIBCO, Inc.) supplemented with 10% fetal calf serum and the appropriate farnesyl protein transferase inhibitors. After 24 hours, media was removed and fresh media containing the appropriate drugs was re-added. 48 hours after electroporation cells were examined under the microscope to monitor disordered cell growth induced by transforming Ras. Cells expressing transforming Ras become more rounded and refractile and overgrow the monolayer, reminiscent of the transformed phenotype. Cells were then photographed, washed twice with 1 ml of cold phosphate-buffered saline (PBS) and removed from the dish by scraping with a rubber policeman into 1 ml of a buffer containing 25 mM Tris, pH 8.0; 1 mM ethylenediamine tetraacetic acid; 1 mM phenylmethylsulfonyl fluoride; […] leupeptin; and 0.1 mM pepstatin. Cells were lysed by homogenization and cell debris was removed by centrifugation at 2000 x g for 10 min. Cellular protein was precipitated by addition of ice-cold trichloroacetic acid and redissolved in […] of SDS-electrophoresis sample buffer. […] Proteins resolved on the gels were electroblotted onto nitrocellulose membranes for immunodetection. […] After washing, membranes were incubated for one hour at room temperature with a 1:5000 dilution of secondary antibody, rabbit anti-rat IgG conjugated to horseradish peroxidase, in PBS containing 1% fetal calf serum.

[2] = biological target: T2, geranylgeranyl protein transferase (GGPT) I (Rattus norvegicus, UniProt P53610+Q04631); assay: In vitro enzyme assay: inhibition of geranylgeranyl protein transferase I (Ras-CVLL as acceptor); assay type: biochemical; conditions: Table 2; Ras-CVLL as isoprenoid acceptor
T2 construct: geranylgeranyl protein transferase (GGPT) I were partially purified from rat brain; from tissue; host or cells: rat brain
Description: • 1. In vitro enzyme assays: Inhibition of farnesyl protein transferase and geranylgeranyl protein transferase. Both farnesyl protein transferase (FPT) and geranylgeranyl protein transferase (GGPT) I were partially purified from rat brain by ammonium sulfate fractionation followed by Q-Sepharose (Pharmacia, Inc.) anion exchange chromatography essentially as described by Yokoyama et al (Yokoyama, K., et al., (1991), A protein geranylgeranyltransferase from bovine brain: Implications for protein prenylation specificity, Proc. Natl. Acad. Sci USA 88: 5302-5306, the disclosure of which is incorporated herein by reference thereto). Human farnesyl protein transferase was also expressed in E. coli, using cDNA clones encoding both the a and b subunits. The methods used were similar to those published (Omer, C. et al., (1993), Characterization of recombinant human farnesyl protein transferase: Cloning, expression, farnesyl diphosphate binding, and functional homology with yeast prenyl-protein transferases, Biochemistry 32:5167-5176). Human farnesyl protein transferase was partially-purified from the soluble protein fraction of E. coli as described above. The tricyclic farnesyl protein transferase inhibitors disclosed herein inhibited both human and rat enzyme with similar potencies. Two forms of val^12-Ha-Ras protein were prepared as substrates for these enzymes, differing in their carboxy terminal sequence. One form terminated in cysteine-valine-leucine-serine (Ras-CVLS) the other in cystein-valine-leucine-leucine (Ras-CVLL). Ras-CVLS is a substrate for the farnesyl protein transferase while Ras-CVLL is a substrate for geranylgeranyl protein transferase I. The cDNAs encoding these proteins were constructed so that the proteins contain an amino-terminal extension of 6 histidine residues. Both proteins were expressed in Escherichia coli and purified using metal chelate affinity chromatography. The radiolabelled isoprenyl pyrophosphate substrates, [^3H]farnesyl pyrophosphate and [^3H]geranylgeranyl pyrophosphate, were purchased from DuPont/New England Nuclear. Several methods for measuring farnesyl protein transferase activity have been described (Reiss et al 1990, Cell 62: 81; Schaber et al 1990, J. Biol. Chem. 265: 14701; Manne et al 1990, PNAS 87: 7541; and Barbacid & Manne 1993, U.S. Patent No. 5,185,248). The activity was assayed by measuring the transfer of [^3H]farnesyl from [^3H]farnesyl pyrophosphate to Ras-CVLS using conditions similar to those described by Reiss et al. 1990 (Cell 62: 81) The reaction mixture contained 40 mM Hepes, pH 7.5; 20 mM magnesium chloride; 5 mM dithiothreitol; 0.25 µM [^3H]farnesyl pyrophosphate; […] Q-Sepharose-purified farnesyl protein transferase; the indicated concentration of tricyclic compound or dimethylsulfoxide (DMSO) vehicle control (5% DMSO final); and […] Ras-CVLS in a total volume of […]. The reaction was allowed to proceed for 30 minutes at room temperature and then stopped with 0.5 ml of 4% sodium dodecyl sulfate (SDS) followed by 0.5 ml of cold 30% TCA. Samples were allowed to sit on ice for 45 minutes and precipitated Ras protein was then collected on GF/C filter paper mats using a Brandel cell harvester. Filter mats were washed once with 6% TCA, 2% SDS and radioactivity was measured in a Wallac 1204 Betaplate BS liquid scintillation counter. Percent inhibition was calculated relative to the DMSO vehicle control. The geranylgeranyl protein transferase I assay was essentially identical to the farnesyl protein transferase assay described above, with two exceptions: [^3H]geranylgeranylpyrophosphate replaced farnesyl pyrophosphate as the isoprenoid donor and Ras-CVLL was the protein acceptor. This is similar to the assay reported by Casey et al (Casey, P.J., et al., (1991), Enzymatic modification of proteins with a geranylgeranyl isoprenoid, Proc. Natl. Acad. Sci, USA 88: 8631-8635, the disclosure of which is incorporated herein by reference thereto). • 2. […]

[3] = tested on: Normal human HEPM fibroblasts; assay: Cell Mat Assay, normal cell mat; assay type: cell-based; conditions: normal monolayer
[4] = tested on: T24-BAG4 human bladder carcinoma cells expressing an activated H-ras gene; assay: Cell Mat Assay, T24 tumor cells; assay type: cell-based; conditions: read-out: Tumor (T-24) IC50
[5] = tested on: Ras-CVLS processing in COS monkey kidney cells; assay: COS cell assay: inhibition of Ras-CVLS processing (Western blot); assay type: cell-based
Description: • 1. In vitro enzyme assays: Inhibition of farnesyl protein transferase and geranylgeranyl protein transferase. Both farnesyl protein transferase (FPT) and geranylgeranyl protein transferase (GGPT) I were partially purified from rat brain by ammonium sulfate fractionation followed by Q-Sepharose (Pharmacia, Inc.) anion exchange chromatography essentially as described by Yokoyama et al (Yokoyama, K., et al., (1991), A protein geranylgeranyltransferase from bovine brain: Implications for protein prenylation specificity, Proc. Natl. Acad. Sci USA 88: 5302-5306, the disclosure of which is incorporated herein by reference thereto). Human farnesyl protein transferase was also expressed in E. coli, using cDNA clones encoding both the a and b subunits. The methods used were similar to those published (Omer, C. et al., (1993), Characterization of recombinant human farnesyl protein transferase: Cloning, expression, farnesyl diphosphate binding, and functional homology with yeast prenyl-protein transferases, Biochemistry 32:5167-5176). Human farnesyl protein transferase was partially-purified from the soluble protein fraction of E. coli as described above. […] Two forms of val^12-Ha-Ras protein were prepared as substrates for these enzymes, differing in their carboxy terminal sequence. One form terminated in cysteine-valine-leucine-serine (Ras-CVLS) the other in cystein-valine-leucine-leucine (Ras-CVLL). Ras-CVLS is a substrate for the farnesyl protein transferase while Ras-CVLL is a substrate for geranylgeranyl protein transferase I. The cDNAs encoding these proteins were constructed so that the proteins contain an amino-terminal extension of 6 histidine residues. Both proteins were expressed in Escherichia coli and purified using metal chelate affinity chromatography. The radiolabelled isoprenyl pyrophosphate substrates, [^3H]farnesyl pyrophosphate and [^3H]geranylgeranyl pyrophosphate, were purchased from DuPont/New England Nuclear. Several methods for measuring farnesyl protein transferase activity have been described (Reiss et al 1990, Cell 62: 81; Schaber et al 1990, J. Biol. Chem. 265: 14701; Manne et al 1990, PNAS 87: 7541; and Barbacid & Manne 1993, U.S. Patent No. 5,185,248). […] The reaction was allowed to proceed for 30 minutes at room temperature and then stopped with 0.5 ml of 4% sodium dodecyl sulfate (SDS) followed by 0.5 ml of cold 30% TCA. Samples were allowed to sit on ice for 45 minutes and precipitated Ras protein was then collected on GF/C filter paper mats using a Brandel cell harvester. Filter mats were washed once with 6% TCA, 2% SDS and radioactivity was measured in a Wallac 1204 Betaplate BS liquid scintillation counter. Percent inhibition was calculated relative to the DMSO vehicle control. The geranylgeranyl protein transferase I assay was essentially identical to the farnesyl protein transferase assay described above, with two exceptions: [^3H]geranylgeranylpyrophosphate replaced farnesyl pyrophosphate as the isoprenoid donor and Ras-CVLL was the protein acceptor. […] Cell-Based Assay: Transient expression of val^12-Ha-Ras-CVLS and val^12-Ha-Ras-CVLL in COS monkey kidney cells: Effect of farnesyl protein transferase inhibitors on Ras processing and on disordered cell growth induced by transforming Ras. COS monkey kidney cells were transfected by electroporation with the plasmid pSV-SPORT (Gibco/BRL) containing a cDNA insert encoding either Ras-CVLS or Ras-CVLL, leading to transient overexpression of a Ras substrate for either farnesyl protein transferase or geranylgeranyl protein transferase I, respectively (see above). Following electroporation, cells were plated into 6-well tissue culture dishes containing 1.5 ml of Dulbecco's-modified Eagle's media (GIBCO, Inc.) supplemented with 10% fetal calf serum and the appropriate farnesyl protein transferase inhibitors. After 24 hours, media was removed and fresh media containing the appropriate drugs was re-added.

[6] = tested on: DLD-1 (human colon carcinoma cells, ATCC # CCL 221); assay: In Vivo Anti-Tumor Studies, subcutaneous DLD-1 tumors; design: species or system athymic nu/nu female mice; conditions: Mus musculus, DLD-1, po, QID, 4 weeks, range over the listed compounds; for inhibition in vivo at 10 mg/kg: 10 mg/kg p.o.; for inhibition in vivo at 50 mg/kg: 50 mg/kg p.o.
Description: Tumor cells (5 X 10^5 to 8 X 10^6) of DLD-1 (human colon carcinoma cells, ATCC # CCL 221) are innolculated subcutaneously into the flank of 5-6 week o;d athymic nu/nu female mice.

[7] = tested on: SW620-BAG human colon carcinoma cells expressing an activated K-ras gene; assay: Cell Mat Assay, SW620 tumor cells; assay type: cell-based; conditions: Mat assay
[8] = tested on: DLD-1-BAG human colon carcinoma cells expressing as activated K-ras gene; assay: Cell Mat Assay, DLD-1 tumor cells; assay type: cell-based; conditions: Mat assay
[9] = Table 2, comparison with GGPT, read-out: ENZYME INHIBITION FPT IC50

| SMILES | IC50 ([1]; FPT IC50, Table 1, partially purified rat brain FPT, Ras-CVLS) [µM] | IC50 [1, 9] [µM] | IC50 [2] [µM] | IC50 [3] [µM] | IC50 [4] [µM] | IC50 [5] [µM] | inhibition in vivo at 10 mg/kg [6] [%] | inhibition in vivo at 50 mg/kg [6] [%] | IC50 [7] [µM] | IC50 [8] [µM] | IC50 ([3]; Homo sapiens, Fibroblast) [µM] | IC50 ([4]; Homo sapiens) [µM] | IC50 ([1]; Table 1, partially purified rat brain FPT, Ras-CVLS, read-out: FPT IC50) [µM] |
| --- | --- | --- | --- | --- | --- | --- | --- | --- | --- | --- | --- | --- | --- |
| O=C(Cc1cc[n+]([O-])cc1)N1CCC(=C2c3ncc(Br)cc3CCc3cc(Cl)cc(Br)c32)CC1 (single isomer, unassigned) [Example 7B] | < 0.003 | < 0.003 | > 66 |  |  |  |  |  |  |  |  |  |  |
| NC(=O)N1CCC(CC(=O)N2CCC(=C3c4ncc(Br)cc4CCc4cc(Cl)cc(Br)c43)CC2)CC1 (single isomer, unassigned) [Example 8B] |  |  | > 60 | > 25 | < 1.6 | 0.28 | 7 to 50 | 35.4 to 83 | 3.1 | < 1.6 |  |  |  |
| NC(=O)N1CCC(CC(=O)N2CCC(C3c4ccc(Cl)cc4CCc4cc(Br)cnc43)CC2)CC1 (stereo not drawn) [Example 4] |  | 0.046 | > 35.7 |  |  |  | 7 to 50 | 35.4 to 83 |  |  | > 25 | 3.1 | 0.046 |

— patent EP1019392B1, “TRICYCLIC AMIDES USEFUL FOR INHIBITION OF G-PROTEIN FUNCTION AND FOR TREATMENT OF PROLIFERATIVE DISEASES” (SCHERING CORPORATION, priority 1995, dated 1997)
